Measurements reported in patent US6737383B1, “Herbicidal oxadiazolidines” (priority 1999, dated 2004).

Experiments:
[1] = system: bedstraw; assay: Test B pre/postemergence bedstraw; type: in vivo, Galium aparine
Outline: (§1)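 Response is a visual 0-to-10 score relative to untreated plants, where 0 means no effect and 10 means complete control, taken twelve to sixteen days after application. Treatments went onto soil at planting and onto foliage of 1- to 4-leaf plants, using a surfactant-containing non-phytotoxic solvent.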

[2] = system: surinam grass; assay: Test B pre/postemergence surinam grass; type: in vivo, Brachiaria decumbens
Outline: as §1

[3] = system: cocklebur; assay: Test B pre/postemergence cocklebur; type: in vivo, Xanthium strumarium
Outline: as §1

[4] = system: corn; assay: Test B pre/postemergence corn; type: in vivo, Zea mays
Outline: as §1

[5] = system: crabgrass; assay: Test B pre/postemergence crabgrass; type: in vivo, Digitaria sanguinalis
Outline: as §1

[6] = system: giant foxtail; assay: Test B pre/postemergence giant foxtail; type: in vivo, Setaria faberii
Outline: as §1

[7] = system: morningglory; assay: Test B pre/postemergence morningglory; type: in vivo, Ipomoea hederacea
Outline: as §1

[8] = system: pigweed; assay: Test B pre/postemergence pigweed; type: in vivo, Amaranthus retroflexus
Outline: as §1

[9] = system: rape; assay: Test B pre/postemergence rape; type: in vivo, Brassica napus
Outline: as §1

[10] = system: soybean; assay: Test B pre/postemergence soybean; type: in vivo, Glycine max
Outline: as §1

[11] = system: sugar beet; assay: Test B pre/postemergence sugar beet; type: in vivo, Beta vulgaris
Outline: as §1

[12] = system: velvetleaf; assay: Test B pre/postemergence velvetleaf; type: in vivo, Abutilon theophrasti
Outline: as §1

[13] = system: wheat; assay: Test B pre/postemergence wheat; type: in vivo, Triticum aestivum
Outline: as §1

[14] = system: purple nutsedge; assay: Test B pre/postemergence purple nutsedge; type: in vivo, Cyperus rotundus
Outline: as §1

[15] = system: duck salad; assay: Test B flood test duck salad; type: in vivo, Heteranthera limosa
Outline: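 Each value is a visual injury score relative to controls, with 10 meaning complete control and 0 no effect. Evaluation took place twelve to sixteen days after the 2-leaf-stage plants were treated and kept in the greenhouse.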

[16] = Postemergence, Rate 125 g/ha, scale 0 to 10, 0 is no effect, 10 is complete control
[17] = Preemergence, Rate 62 g/ha, scale of 0 to 10 where 0 is no effect and 10 is complete control
[18] = Preemergence, Rate 250 g/ha, scale of 0 to 10 where 0 is no effect and 10 is complete control
[19] = Preemergence, Rate 500 g/ha, scale of 0 to 10 where 0 is no effect and 10 is complete control
[20] = Rate 62 g/ha, Postemergence, scale 0 to 10 (0 no effect, 10 complete control)
[21] = Rate 250 g/ha, Postemergence, scale of 0 to 10 where 0 is no effect and 10 is complete control
[22] = Rate 500 g/ha, Postemergence, scale 0 to 10, 0 no effect, 10 complete control

Cc1c(-n2c(=O)on(C(=O)N(c3ccc(Cl)cc3)C(C)C)c2=O)ccc2ccccc12 [Compound 336]
0: Plant response rating, Bedstraw [1, 16] | Bedstraw plant response rating [1, 17] | Bedstraw plant response rating (0 to 10 scale) ([1]; Preemergence, Rate 125 g/ha) | Bedstraw plant response rating [1, 18] | Bedstraw plant response rating [1, 19] | Bedstraw plant response rating [1, 20] | Plant response rating, Bedstraw [1, 21] | Plant response rating, Bedstraw [1, 22] | Plant response rating, B. signalgrass [2, 16] | B. signalgrass plant response rating [2, 17] | B. signalgrass plant response rating (0 to 10 scale, 0 is no effect, 10 is complete control) ([2]; Preemergence, Rate 125 g/ha) | B. signalgrass plant response rating [2, 18] | B. signalgrass plant response rating [2, 19] | B. signalgrass plant response rating [2, 20] | Plant response rating, B. signalgrass [2, 21] | Plant response rating, B. signalgrass [2, 22] | Plant response rating, Cocklebur [3, 16] | Cocklebur plant response rating [3, 17] | Cocklebur plant response rating (0 to 10 scale) ([3]; Preemergence, Rate 125 g/ha) | Cocklebur plant response rating [3, 18] | Cocklebur plant response rating [3, 19] | Cocklebur plant response rating [3, 20] | Plant response rating, Cocklebur [3, 22] | Plant response rating, Corn [4, 16] | Corn plant response rating [4, 17] | Corn plant response rating (0 to 10 scale) ([4]; Preemergence, Rate 125 g/ha) | Corn plant response rating [4, 18] | Corn plant response rating [4, 19] | Corn plant response rating [4, 20] | Plant response rating, Corn [4, 22] | Plant response rating, Crabgrass [5, 16] | Crabgrass plant response rating [5, 17] | Crabgrass plant response rating (0 to 10 scale) ([5]; Preemergence, Rate 125 g/ha) | Crabgrass plant response rating [5, 18] | Crabgrass plant response rating [5, 19] | Crabgrass plant response rating [5, 20] | Plant response rating, Crabgrass [5, 22] | Plant response rating, Giant foxtail [6, 16] | Giant foxtail plant response rating [6, 17] | Giant foxtail plant response rating (0 to 10 scale) ([6]; Preemergence, Rate 125 g/ha) | Giant foxtail plant response rating [6, 18] | Giant foxtail plant response rating [6, 19] | Giant foxtail plant response rating [6, 20] | Plant response rating, Giant foxtail [6, 22] | Plant response rating, Morningglory [7, 16] | Morningglory plant response rating [7, 17] | Morningglory plant response rating (0 to 10 scale) ([7]; Preemergence, Rate 125 g/ha) | Morningglory plant response rating [7, 18] | Morningglory plant response rating [7, 19] | Morningglory plant response rating [7, 20] | Plant response rating, Morningglory [7, 22] | Plant response rating, Redroot pigweed [8, 16] | Redroot pigweed plant response rating [8, 17] | Redroot pigweed plant response rating (0 to 10 scale) ([8]; Preemergence, Rate 125 g/ha) | Redroot pigweed plant response rating [8, 18] | Redroot pigweed plant response rating [8, 19] | Redroot pigweed plant response rating [8, 20] | Plant response rating, Redroot pigweed [8, 22] | Plant response rating, Rape [9, 16] | Rape plant response rating [9, 17] | Rape plant response rating (0 to 10 scale) ([9]; Preemergence, Rate 125 g/ha) | Rape plant response rating [9, 18] | Rape plant response rating [9, 19] | Rape plant response rating [9, 20] | Plant response rating, Rape [9, 22] | Soybean plant response rating [10, 17] | Soybean plant response rating (0 to 10 scale) ([10]; Preemergence, Rate 125 g/ha) | Soybean plant response rating [10, 18] | Soybean plant response rating [10, 19] | Plant response rating, Sugarbeets [11, 16] | Sugarbeets plant response rating [11, 17] | Sugarbeets plant response rating (0 to 10 scale) ([11]; Preemergence, Rate 125 g/ha) | Sugarbeets plant response rating [11, 18] | Sugarbeets plant response rating [11, 19] | Sugarbeets plant response rating [11, 20] | Plant response rating, Sugarbeets [11, 22] | Plant response rating, Velvetleaf [12, 16] | Velvetleaf plant response rating [12, 17] | Velvetleaf plant response rating (0 to 10 scale) ([12]; Preemergence, Rate 125 g/ha) | Velvetleaf plant response rating [12, 18] | Velvetleaf plant response rating [12, 19] | Velvetleaf plant response rating [12, 20] | Plant response rating, Velvetleaf [12, 22] | Plant response rating, Wheat [13, 16] | Wheat plant response rating [13, 17] | Wheat plant response rating (0 to 10 scale) ([13]; Preemergence, Rate 125 g/ha) | Wheat plant response rating [13, 18] | Wheat plant response rating [13, 19] | Wheat plant response rating [13, 20] | Plant response rating, Wheat [13, 22] | Plant response rating, Nutsedge [14, 16] | Nutsedge plant response rating [14, 17] | Nutsedge plant response rating (0 to 10 scale) ([14]; Preemergence, Rate 125 g/ha) | Nutsedge plant response rating [14, 18] | Nutsedge plant response rating [14, 19] | Nutsedge plant response rating [14, 20] | Plant response rating, Nutsedge [14, 22] | Ducksalad plant response rating ([15]; Rate 62 g/ha, headed Pre-emergence (flood test species), scale 0 to 10 (0 no effect, 10 complete control)) | Ducksalad plant response rating ([15]; Rate 125 g/ha, Pre-emergence, flood test species, scale 0 to 10 where 0 is no effect and 10 is complete control) | Ducksalad plant response rating ([15]; Rate 250 g/ha, Pre-emergence, flood-test species, scale 0 to 10, 0 is no effect, 10 is complete control) | Ducksalad plant response rating ([15]; Rate 500 g/ha, Pre-emergence, flood test species, scale 0 to 10 (0 no effect, 10 complete control))
1: Plant response rating, Soybean [10, 16] | Soybean plant response rating [10, 20]
2: Plant response rating, Soybean [10, 22]
